Experimental data published in patent US20260083865A1, “PROSTATE SPECIFIC MEMBRANE ANTIGEN (PSMA) LIGANDS AND USE THEREOF” (priority 2022, published 2026).
Where two headings read alike, the source gives them in different places. Numbered stars: 1 amine (or outer) side, 2 acyl side, 3 side chain; on linkers, the order of the positions; unused ones are H or OH. Bridge positions count the residues as written; N and C are the ends. Square brackets hold non-standard residues; d marks the D form. Peptide text beside a SMILES is read from it. * marks the point of attachment. TtdsdLys(DOTA)NH2 = NC(=O)[C@@H](CCCCNC(=O)CN1CCN(CC(=O)O)CCN(CC(=O)O)CCN(CC(=O)O)CC1)NC(=O)CCC(=O)NCCCOCCOCCOCCCN*; DOTA = O=C(O)CN1CCN(CC(=O)O)CCN(CC(=O)*)CCN(CC(=O)O)CC1; Phe(4-Cl) = N[C@@H](Cc1ccc(Cl)cc1)C(=O)O; Arg(Me) = CNC(=N)NCCC[C@H](N)C(=O)O; Ethylenediamine = C(CN[*:2])N[*:1]; X1 = O=C(CC1CCN([*:1])CC1)[*:2]; Aad = N[C@@H](CCCC(=O)O)C(=O)O; Lys(Me) = CNCCCC[C@H](N)C(=O)O; Tle = CC(C)(C)[C@H](N)C(=O)O; Hexanoyl = CCCCCC(=O)*; Aib = CC(C)(N)C(=O)O; βAla = NCCC(=O)O

Key:
PC3-PIP tumor model = system: PC3-PIP tumor model; set-up: species or system mice; conditions: mouse, in vivo
Description: Radioactively labeled compounds can be detected by imaging methods such as SPECT and PET. Furthermore, the data acquired by such techniques can be confirmed by direct measurement of radioactivity contained in the individual organs prepared from an animal injected with a radioactively labeled compound of the disclosure. Thus, the biodistribution (the measurement of radioactivity in individual organs) of a radioactively labeled compound can be determined and analyzed. […] All animal experiments were conducted in compliance with the German animal protection laws. Male swiss or NMRI nude mice (6-8 weeks old, Janvier Labs, France) were inoculated with 5×10^6 PC3-PIP cells in the right shoulder. For selected compounds an additional model was used, here male NMRI nude mice (6-8 weeks old, Janvier Labs, France) were inoculated with 5×10^6 or/1×10^7 C4-2 cells in the right shoulder. When tumors reached an appropriate size, the mice received ˜30 MBq ^111In-labeled compounds of the disclosure (diluted to 100 μL with PBS) administered intravenously via the tail vein. Images were obtained on a NanoSPECT/computed tomography system (Mediso Medical Imaging Systems, Budapest, Hungary) using exemplarily the following acquisition and reconstruction parameters (Table 10). [table] Imaging data were saved as DICOM files and analysed using VivoQuant™ software (Invicro, Boston, USA). In brief, regions of interest (ROIs) were drawn based on computed tomography images for the relevant organs and tissue regions such as heart (estimate of blood pool, bps), kidney, and tumor. The resulting numeric data expressed as a percentage of injected dose per gram of tissue (% ID/g) are presented in FIGS. 3(a)-3(ii) for the PC3-PIP model and FIGS. 4(a)-4(r) for the C4-2 model. Bars show mean % ID/g values of two to three animals per time point. Error bars indicate the value range (minimum and maximum values).

[1] = biological target: T1, PSMA-expressing C4-2 cells (Homo sapiens, UniProt Q04609); test: FACS binding assay (competition with 50 nM PSM-0183); conditions: C4-2 cells, read-out: pIC50 [C4-2] CAT (converted)
T1 construct: PSMA-expressing C4-2 cells (ATCC, Cat. No. CRL-3314) were cultured in RPMI-1640; host or cells: C4-2 cells
Procedure, shortened: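 C4-2 cells were incubated 1 h at 4 °C with 50 nM AF488-labelled peptide PSM-0183 plus increasing test compound concentrations, then washed twice in ice-cold buffer. Median fluorescence in the AF488 channel was read by flow cytometry. IC50/pIC50 was derived by 4PL fitting of MFI versus concentration.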

[2] = biological target: T2, Fc-fusion protein of human PSMA (hPSMA-Fc) (Homo sapiens, UniProt Q04609); test: Surface plasmon resonance assay (Biacore T200, single cycle kinetic); format: binding; conditions: read-out: pKD CAT (converted)
T2 construct: purchased Acro Biosystems PSA-H5264
Procedure, shortened: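 hPSMA-Fc was captured (~1000 RU) on an Fc-binding-peptide CM5 chip, and compounds were run in single cycle kinetic mode at 25° C in HBST with 0.1% DMSO. Double-blank-corrected sensorgrams were fitted to a 1:1 Langmuir model to give KD, reported as pKD.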

[3] = pKD category for PSMA SPR activity assay, hPSMA-Fc, 25° C.

T2 sequence (Q04609 44-750 limits assumed): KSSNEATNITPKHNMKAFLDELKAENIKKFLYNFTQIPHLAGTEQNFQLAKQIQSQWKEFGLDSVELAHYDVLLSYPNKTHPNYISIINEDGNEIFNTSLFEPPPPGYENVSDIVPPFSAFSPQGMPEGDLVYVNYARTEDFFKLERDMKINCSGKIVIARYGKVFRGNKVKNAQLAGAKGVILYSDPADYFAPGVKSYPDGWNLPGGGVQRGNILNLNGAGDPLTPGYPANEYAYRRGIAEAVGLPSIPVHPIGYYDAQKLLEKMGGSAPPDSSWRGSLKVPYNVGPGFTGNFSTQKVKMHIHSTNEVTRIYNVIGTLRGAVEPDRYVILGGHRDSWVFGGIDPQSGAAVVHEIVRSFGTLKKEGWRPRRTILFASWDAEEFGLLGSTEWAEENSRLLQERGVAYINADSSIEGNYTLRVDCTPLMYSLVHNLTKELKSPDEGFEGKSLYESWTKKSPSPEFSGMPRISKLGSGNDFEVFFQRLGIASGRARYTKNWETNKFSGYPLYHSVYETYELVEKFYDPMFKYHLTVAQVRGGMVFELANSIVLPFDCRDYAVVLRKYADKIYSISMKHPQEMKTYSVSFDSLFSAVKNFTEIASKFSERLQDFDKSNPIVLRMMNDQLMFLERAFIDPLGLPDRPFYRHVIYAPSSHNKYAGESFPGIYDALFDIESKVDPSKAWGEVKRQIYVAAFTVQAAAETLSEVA
T1 sequence (Q04609 whole entry): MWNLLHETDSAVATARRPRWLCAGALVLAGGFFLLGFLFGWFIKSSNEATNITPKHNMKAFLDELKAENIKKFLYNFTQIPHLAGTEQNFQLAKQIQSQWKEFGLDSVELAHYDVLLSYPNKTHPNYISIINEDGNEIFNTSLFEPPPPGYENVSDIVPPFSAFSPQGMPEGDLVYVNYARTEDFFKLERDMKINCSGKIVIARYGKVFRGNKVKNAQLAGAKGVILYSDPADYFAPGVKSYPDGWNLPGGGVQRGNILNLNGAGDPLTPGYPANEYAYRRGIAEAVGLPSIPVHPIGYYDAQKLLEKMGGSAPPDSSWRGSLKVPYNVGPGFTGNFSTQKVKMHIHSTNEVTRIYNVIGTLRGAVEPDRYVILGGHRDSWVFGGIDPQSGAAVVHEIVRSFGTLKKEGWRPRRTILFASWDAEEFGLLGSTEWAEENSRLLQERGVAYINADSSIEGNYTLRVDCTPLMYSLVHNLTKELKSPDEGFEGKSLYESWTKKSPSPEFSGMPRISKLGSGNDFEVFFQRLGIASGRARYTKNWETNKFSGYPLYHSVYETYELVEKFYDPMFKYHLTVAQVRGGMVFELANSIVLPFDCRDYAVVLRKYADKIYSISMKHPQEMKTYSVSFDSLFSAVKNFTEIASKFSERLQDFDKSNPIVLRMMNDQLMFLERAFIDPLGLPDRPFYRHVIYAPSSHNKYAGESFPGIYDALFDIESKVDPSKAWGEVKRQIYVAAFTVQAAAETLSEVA

| SMILES | AUC ratio [T/K] (PC3-PIP tumor model) | Tumor AUC (PC3-PIP tumor model) | IC50 ([1]; pIC50 category of FACS binding) | Kd [2, 3] | IC50 ([1]; FACS binding, category) | Kd ([2]; PSMA SPR assay, category) |
| --- | --- | --- | --- | --- | --- | --- |
| CCCCCC(=O)N[C@H](C(=O)NC(C)(C)C(=O)N[C@@H](Cc1ccccc1)C(=O)N[C@H]1CSSC[C@@H](C(=O)N[C@H](C(=O)N[C@H](C(=O)N[C@@H](CC(=O)O)C(=O)NCCCOCCOCCOCCCNC(=O)CCC(=O)N[C@H](CCCCNC(=O)CN2CCN(CC(=O)O)CCN(CC(=O)O)CCN(CC(=O)O)CC2)C(N)=O)[C@@H](C)O)C(C)(C)C)NC(=O)[C@H](CC(N)=O)NC(=O)C(C)(C)NC(=O)[C@H](CCCNC(=N)N)NC(=O)[C@H](CCCCN)NC1=O)[C@@H](C)O [PSM-0425, Hex-Thr-Aib-Phe-[Cys-Lys-Arg-Aib-Asn-Cys]-Tle-Thr-Asp-Ttds-lys(DOTA)-NH2] (Hexanoyl-T[Aib]FCKR[Aib]NC[Tle]TD-{TtdsdLys(DOTA)NH2}; disulfide 4-9) | 0.53 | 230 % ID/g*h | < 200 nM | < 12.6 nM | – | – |
| CC(=O)N[C@H](C(=O)NC(C)(C)C(=O)N[C@@H](Cc1ccccc1)C(=O)N[C@H]1CSSC[C@@H](C(=O)N[C@H](C(=O)N[C@H](C(=O)N2CCC(CC(=O)N[C@H](CCCCNC(=O)CN3CCN(CC(=O)O)CCN(CC(=O)O)CCN(CC(=O)O)CC3)C(N)=O)CC2)[C@@H](C)O)C(C)(C)C)NC(=O)[C@H](CC(N)=O)NC(=O)C(C)(C)NC(=O)[C@H](CCCNC(=N)N)NC(=O)[C@H](CCCCN)NC1=O)[C@@H](C)O [PSM-0428, Ac-Thr-Aib-Phe-[Cys-Lys-Arg-Aib-Asn-Cys]-Tle-Thr-Cmp-lys(DOTA)-NH2] (Ac-T[Aib]FCKR[Aib]NC[Tle]T[X1][dK](DOTA)-NH2; disulfide 4-9) | 1.2 | 170 % ID/g*h | < 200 nM | < 12.6 nM | – | – |
| C[C@@H](O)[C@H](NC(=O)CC1CCN(C(=O)CN2CCN(CC(=O)O)CCN(CC(=O)O)CCN(CC(=O)O)CC2)CC1)C(=O)NC(C)(C)C(=O)N[C@@H](Cc1ccc(Cl)cc1)C(=O)N[C@H]1CSSC[C@@H](C(=O)N[C@H](C(N)=O)C(C)(C)C)NC(=O)[C@H](CC(N)=O)NC(=O)C(C)(C)NC(=O)[C@H](CCCNC(=N)N)NC(=O)[C@H](CCCCN)NC1=O [PSM-0433, DOTA-Cmp-Thr-Aib-Pcf-[Cys-Lys-Arg-Aib-Asn-Cys]-Tle-NH2] ({DOTA}-[X1]T[Aib][Phe(4-Cl)]CKR[Aib]NC[Tle]-NH2; disulfide 5-10) | 1.7 | 270 % ID/g*h | < 200 nM | < 12.6 nM | – | – |
| C[C@@H](O)[C@H](NC(=O)CC1CCN(C(=O)CN2CCN(CC(=O)O)CCN(CC(=O)O)CCN(CC(=O)O)CC2)CC1)C(=O)NC(C)(C)C(=O)N[C@@H](Cc1ccccc1)C(=O)N[C@H]1CSSC[C@@H](C(=O)N[C@H](C(=O)NCCC(N)=O)C(C)(C)C)NC(=O)[C@H](CC(N)=O)NC(=O)C(C)(C)NC(=O)[C@H](CCCNC(=N)N)NC(=O)[C@H](CCCCN)NC1=O [PSM-0449, DOTA-Cmp-Thr-Aib-Pho-[Cys-Lys-Arg-Aib-Asn-Cys]-Tle-Bal-NH2] ({DOTA}-[X1]T[Aib]FCKR[Aib]NC[Tle][βAla]-NH2; disulfide 5-10) | 1.4 | 220 % ID/g*h | < 200 nM | < 12.6 nM | – | – |
| C[C@@H](O)[C@H](NC(=O)CC1CCN(C(=O)CN2CCN(CC(=O)O)CCN(CC(=O)O)CCN(CC(=O)O)CC2)CC1)C(=O)NC(C)(C)C(=O)N[C@@H](Cc1ccc(Cl)cc1)C(=O)N[C@H]1CSSC[C@@H](C(=O)N[C@H](C(=O)NCCC(N)=O)C(C)(C)C)NC(=O)[C@H](CC(N)=O)NC(=O)C(C)(C)NC(=O)[C@H](CCCNC(=N)N)NC(=O)[C@H](CCCCN)NC1=O [PSM-0467, DOTA-Cmp-Thr-Aib-Pcf-[Cys-Lys-Arg-Aib-Asn-Cys]-Tle-Bal-NH2] ({DOTA}-[X1]T[Aib][Phe(4-Cl)]CKR[Aib]NC[Tle][βAla]-NH2; disulfide 5-10) | 1.3 | 280 % ID/g*h | < 200 nM | < 12.6 nM | – | – |
| CNCCCC[C@@H]1NC(=O)[C@@H](NC(=O)[C@H](Cc2ccc(Cl)cc2)NC(=O)C(C)(C)NC(C)=O)CSSC[C@@H](C(=O)N[C@H](C(=O)NCCNC(=O)CN2CCN(CC(=O)O)CCN(CC(=O)O)CCN(CC(=O)O)CC2)C(C)(C)C)NC(=O)[C@H](CC(N)=O)NC(=O)C(C)(C)NC(=O)[C@H](CCCNC(=N)NC)NC1=O [PSM-0481, Ac-Aib-Pcf-[Cys-Lys(Me)-Arg(Me)-Aib-Asn-Cys]-Tle-en-DOTA] (Ac-[Aib][Phe(4-Cl)]C[Lys(Me)][Arg(Me)][Aib]NC[Tle]-{Ethylenediamine-DOTA}; disulfide 3-8) | 2.6 | 130 % ID/g*h | < 200 nM | < 12.6 nM | – | – |
| C[C@@H](O)[C@H](NC(=O)[C@@H](NC(=O)[C@@H]1CSSC[C@H](NC(=O)[C@H](Cc2ccccc2)NC(=O)C(C)(C)NC(=O)[C@@H](NC(=O)CC2CCN(C(=O)CN3CCN(CC(=O)O)CCN(CC(=O)O)CCN(CC(=O)O)CC3)CC2)[C@@H](C)O)C(=O)N[C@@H](CCCCN)C(=O)N[C@@H](CCCNC(=N)N)C(=O)NC(C)(C)C(=O)N[C@@H](CC(N)=O)C(=O)N1)C(C)(C)C)C(N)=O [PSM-0492, DOTA-Cmp-Thr-Aib-Phe-[Cys-Lys-Arg-Aib-Asn-Cys]-Tle-Thr-NH2] ({DOTA}-[X1]T[Aib]FCKR[Aib]NC[Tle]T-NH2; disulfide 5-10) | 2.1 | 180 % ID/g*h | < 200 nM | < 12.6 nM | – | – |
| C[C@@H](O)[C@H](NC(=O)[C@@H](NC(=O)[C@@H]1CSSC[C@H](NC(=O)[C@H](Cc2ccc(Cl)cc2)NC(=O)C(C)(C)NC(=O)[C@@H](NC(=O)CC2CCN(C(=O)CN3CCN(CC(=O)O)CCN(CC(=O)O)CCN(CC(=O)O)CC3)CC2)[C@@H](C)O)C(=O)N[C@@H](CCCCN)C(=O)N[C@@H](CCCC(N)=O)C(=O)NC(C)(C)C(=O)N[C@@H](CC(N)=O)C(=O)N1)C(C)(C)C)C(N)=O [PSM-0531, DOTA-Cmp-Thr-Aib-Pcf-[Cys-Lys-Hgn-Aib-Asn-Cys]-Tle-Thr-NH2] ({DOTA}-[X1]T[Aib][Phe(4-Cl)]CK[Aad](NH2)[Aib]NC[Tle]T-NH2; disulfide 5-10) | 1.6 | 120 % ID/g*h | < 200 nM | < 12.6 nM | – | – |
| C[C@@H](O)[C@H](NC(=O)CN1CCN(CC(=O)O)CCN(CC(=O)O)CCN(CC(=O)O)CC1)C(=O)NC(C)(C)C(=O)N[C@@H](Cc1ccc(Cl)cc1)C(=O)N[C@H]1CSSC[C@@H](C(=O)N[C@H](C(N)=O)C(C)(C)C)NC(=O)[C@H](CC(N)=O)NC(=O)C(C)(C)NC(=O)[C@H](CCCNC(=N)N)NC(=O)[C@H](CCCCN)NC1=O [PSM-0534, DOTA-Thr-Aib-Pcf-[Cys-Lys-Arg-Aib-Asn-Cys]-Tle-NH2] ({DOTA}-T[Aib][Phe(4-Cl)]CKR[Aib]NC[Tle]-NH2; disulfide 4-9) | 1.1 | 220 % ID/g*h | < 200 nM | < 12.6 nM | – | – |
| C[C@@H](O)[C@H](NC(=O)[C@@H](NC(=O)[C@@H]1CSSC[C@H](NC(=O)[C@H](Cc2ccc(Cl)cc2)NC(=O)C(C)(C)NC(=O)[C@@H](NC(=O)CN2CCN(CC(=O)O)CCN(CC(=O)O)CCN(CC(=O)O)CC2)[C@@H](C)O)C(=O)N[C@@H](CCCCN)C(=O)N[C@@H](CCCNC(=N)N)C(=O)NC(C)(C)C(=O)N[C@@H](CC(N)=O)C(=O)N1)C(C)(C)C)C(N)=O [PSM-0573, DOTA-Thr-Aib-Pcf-[Cys-Lys-Arg-Aib-Asn-Cys]-Tle-Thr-NH2] ({DOTA}-T[Aib][Phe(4-Cl)]CKR[Aib]NC[Tle]T-NH2; disulfide 4-9) | 1.1 | 160 % ID/g*h | – | – | < 200 nM | < 12.6 nM |
